According to patent publication US20050132430A1, “Igamete recruitment and developmental competence in mammals by inhibiting the de-nova sterol biosynthesis and/or promoting sterol efflux” (priority 2001, published 2005):

Key:
naked mouse oocytes (NO) = experiment: IVF fertilisation of naked oocytes after IVM with cyclodextrin; assay type: cell-based
Excerpt: Mouse oocytes were isolated and cultured according to descriptions in […]. The NOs were divided into […] groups and cultured in dishes containing medium added either 0%o, 0.5%o, 2.0%o or 5%o hydroxypropyl-cyclodextrin (ICN 153540, ICN Ohio, U.S.A.). IVM and IVF conditions were the same as in example 6.

[1] = system: mouse cumulus enclosed oocytes (CEO); experiment: IVF fertilisation of cumulus enclosed oocytes after IVM with a statin; assay type: cell-based
Protocol: Mouse oocytes were isolated and cultured according to descriptions in example 3 but for a single deviation in that the IVM culture medium was further supplemented with 1 mg/mL Fetuin (Sigma F-3385, Sigma, U.S.A.). […] The ethanol was necessary in order to dissolve Mevinolin in the medium. After in vitro maturation for 22 h, oocytes were transferred to a fertilisationn medium consisting of minimal essential medium (MEM) (21090-022, Gibco BRL, Scotland), 200 mM L-glutamine (Gibco BRL, Scotland), 20000 IU/L penicillin (Gibco BRL, Scotland), 20000 IU/L streptomycin (Gibco BRL, Scotland), 3 mg/ml BSA (Sigma A-7030, Sigma-Aldrich, Denmark), 2.3 mM sodium pyruvate (S-8636, Sigma), 10 mM ethylen diamine tetra acetic acid (EDTA, Merck 1.08418.0250) and 1 mg/mL Fetuin (Sigma F-3385, Sigma, U.S.A.). Prior to oocyte transfer into the fertilisation medium, mouse sperm for IVF was obtained the following way: A 6-9 month old C57 black×DBA 2 F1 male mouse (M&B A/S, Ry, Denmark) was killed and the epididymis prepared in physiological saline. Thereafter, the epididymis were cut in small pieces and the bulk material was transferred to four 1-mL culture well containing the 800 μL IVF-medium described above and subsequently placed in an incubator (37° C., 95% atmospheric air: 5% CO2). After 1.5 hours of incubation, 300 μL of the upper liquid phase of each of the four wells was aspirated and transferred to a new glass-vial. The resulting pool of motile sperm was counted in a counting chamber and 50000 motile sperm cells was added each oocyte culture. […] These oocytes were left for another 48 hours and subsequently counted according to the maturational status of the oocyte or the progression of the fertilised zygote, i.e. GV-oocytes, GVBD-oocytes, PB-oocytes, PB^2-oocytes (oocytes with a visible second polar body), 2-cells, 3-4-cells, 4+ cells (zygotes with more than 4 blastomeres) and degenerated cells (usually granulated or cells with extensive plasma-membrane ondulation).

[2] = system: C57 black×DBA 2 F1 female mice; experiment: Number of 2-cells in tuba of gonadotropin-stimulated female mice after statin administration and mating; assay type: in vivo, mouse; conditions: for No. of 2-cells in mated animals: pre-pubertal, Gnrh 12 I.U., hCG 10 I.U.
Protocol: Prepubertal C57 black×DBA 2 F1 female mice (M&B A/S, Ry, Denmark) were stimulated to super-ovulation (11 a.m. at day 0) by i.p. Injections of 12 IU Menogon® (Ferring, Denmark) in 200 μL H2O. […] Half of the mice were given additional Injections of 1.6 mg lovastatin, by dissolving a tablet of Mevacor® (Merck Sharp and Dohme, NL) containing 40 mg lovastatin in 5 ml PBS and injecting 200 μL of the resulting slurry i.p. at three consecutive days, beginning at day 0. […] The mice were caged individually one hour later with a mature male mouse of the same strain and supplier (1 male per female). Female and male mice were separated at 9 a.m. at day 3, females were left alone for another 48 h. After killing of the females and dissection of the tuba ovarii, 2-cells were flushed into a plastic dish with culture medium (see later) by mounting a glass pipette in one end of the isolated tuba and blowing by mouth through a filter. The total number of 2-cells flushed per mouse were hereafter counted. The 2-cells were subsequently cultured in Universal IVF-medium (Medicult, Denmark) in an incubator (37° C., 95% atmospheric air, 5% CO2) in 4-well dishes (Nunclon 176740, Nunc, Denmark). After 4 days of culture, wells were scored and numbers of morula, blastocyst or degenerated entities were determined by use of a microscope:
Prepubertal C57 black×DBA 2 F1 female mice (M&B A/S, Ry, Denmark) were treated as in example 1 but for a few deviations. […] In experiment B the dose of statins was decreased to 3×100 μg/animal and administered as in example 1. […] In experiment D the dose of gonadotropins were decreased gradually whereas the dose of statins was administered as in example 1.

[3] = system: patients with type II hyperlipoprotelnemia; conditions: oral 40 mg daily for 4 months vs dietary management alone; cited from earlier work
[4] = system: C57 black×DBA 2 F1 female mice; experiment: Number of 2-cells in tuba of gonadotropin-stimulated female mice after statin administration and mating; assay type: in vivo, mouse
[5] = system: C57 black×DBA 2 F1 male mice; experiment: Sperm quality in mice after statin administration; assay type: in vivo, mouse; conditions: statin administration as in example 6
Protocol: The set-up involves the same animals and statin administration as in example 6. The animals are analysed by methods that are developed in order to evaluate the fertilising potential and sperm quality.

[6] = system: motile cell fraction of epididymis; experiment: C/PL-ratio in motile cell fraction of epididymis after statin administration; assay type: in vivo, mouse; conditions: 3 i.p. injections of 1.0 mg lovastatin per 30 g body weight, male mice
Protocol: Post-pubertal C57 black×DBA 2 F1 male mice (M&B A/S, Ry, Denmark) are used. Four mice are given 3 i.p. injections of 1.0 mg lovastatin per 30 g body weight by dissolving a tablet of Mevacor® (Merck Sharp and Dohme, NL) containing 40 mg lovastatin in 8 ml PBS and injecting 200 μL of the resulting slurry i.p. at 1 p.m. at day-6, -3 and -1, counting the day of epididymal sperm harvest as day 0. […] At 10 a.m on day 0 all mice are killed and the epididymis are prepared in physiological saline. Thereafter, the epididymis are transferred to a 1-mL culture well containing MEM (Gibco BRL, Scotland) supplemented with 2.3 mM pyruvate, 200 mM L-glutamine (Gibco BRL, Scotland), 20000 IU/L penicillin (Gibco BRL, Scotland), 20000 IU/L streptomycin (Gibco BRL, Scotland) and 0.2 mg/ml BSA (Sigma A-7030, Sigma-Aldrich, Denmark) and placed in an incubator (37° C., 95% atmospheric air: 5% CO2).
After 1.5 hours of incubation, the upper liquid phase is aspirated and transferred to a new glass-vial and centrifuged. […] One half is subjected to sterol analysis as designated in the examples above and the total sterol content is calculated to consist of cholesterol, desmosterol, cholesta-7,24-dien-3β-ol, T-MAS and lanosterol. […] The C/PL-ratio is calculated for each individual animal.

[7] = system: gonadotrophin primed prepubertal mouse ovaries; experiment: Free cholesterol, FF-MAS and progesterone in ovaries of gonadotrophin primed prepubertal mice (HPLC); assay type: in vivo; conditions: statin treatment on top of hCG
Protocol: Ovaries were isolated pair-wise, weighed, freeze-dried, weighed again and subsequently extracted in 1.0 ml (v/v) 75% n-heptane: 25% isopropanol. […] Eluted material was detected by ultraviolet light absorption between 200-300 nm. […] Standards for cholesterol (Steraloids […]) and P4 (Sigma P-0130) were obtained commercially whereas the FF-MAS standards used was produced in the laboratory as described before (Baltsen et al., 1999).

CC(O)COC[C@H]1O[C@@H]2O[C@H]3[C@H](O)[C@@H](O)[C@@H](O[C@H]4[C@H](O)[C@@H](O)[C@@H](O[C@H]5[C@H](O)[C@@H](O)[C@@H](O[C@H]6[C@H](O)[C@@H](O)[C@@H](O[C@H]7[C@H](O)[C@@H](O)[C@@H](O[C@H]8[C@H](O)[C@@H](O)[C@@H](O[C@H]1[C@H](O)[C@H]2O)O[C@@H]8COCC(C)O)O[C@@H]7COCC(C)O)O[C@@H]6COCC(C)O)O[C@@H]5COCC(C)O)O[C@@H]4COCC(C)O)O[C@@H]3COCC(C)O (stereo partly drawn) [hydroxypropyl-beta-cyclodextrin, hydroxypropyl-β-cyclodextrin]
fraction of fertilised oocytes (PB2-oocytes to 4+ cells) after IVF (naked mouse oocytes (NO); 0.5, 2.0 or 5 per mille in IVM-medium of NOs vs control): increased | rate of degeneration (naked mouse oocytes (NO); cyclodextrin in the IVM-medium): not affected

Mevinolin
fraction of fertilised oocytes (PB2-oocytes to 4+ cells) after IVF ([1]; 10 μM statin in IVM-medium 22 h, vs control and 7.5 I.U./L FSH): increased | state of development after 72 hours of embryo culture ([1]; vs control and FSH groups): more progressed state | cumulus expansion after the IVM culture period ([1]; vs control oocytes): extensive cumulus expansion

CC[C@H](C)C(=O)O[C@H]1C[C@@H](C)C=C2C=C[C@H](C)[C@H](CC[C@@H]3C[C@@H](O)CC(=O)O3)[C@H]21 [Mevacor, lovastatin]
development of cultured 2-cells into blastocysts, recovery rates ([2]; 2-cells cultured in vitro 4 days): indiscriminate to controls | number of 2-cells per animal ([2]; 3×1.6 mg statin i.p. during follicular phase maturation, vs control): increased significantly | No. of 2-cells in mated animals ([2]; Exp. A, 100 μg single, ovulation): 27.5 ± 3.5 | No. of 2-cells in mated animals ([2]; Exp. A, 1000 μg single, ovulation): 15.3 ± 7.3 | No. of 2-cells in mated animals ([2]; Exp. B, 100 μg single, ovulation): 19.3 ± 4.1 | No. of 2-cells in mated animals ([2]; Exp. B, 3 × 100 μg multi, follicular phase): 6.5 ± 1.0 | more 2-cells as compared to mice stimulated with hormone alone ([2]; hormone stimulated prepubertal female mice, average, FIG. 5): about 70% | sperm motility [3]: small but statistically significant reduction | No. of 2-cells in mated animals ([4]; Exp. C, mature cycling, Gnrh 12 I.U., 3 × 1.0 mg multi, follicular phase): 11.4 ± 2.9 | No. of 2-cells in mated animals ([4]; Exp. C, mature cycling, Gnrh 15 I.U., hCG 10 I.U., 1.0 mg single, ovulation): 16.8 ± 3.4 | No. of 2-cells in mated animals ([4]; Exp. D, pre-pubertal, Gnrh 4 I.U., hCG 5 I.U., 3 × 1.0 mg multi, follicular phase): 5 | fertilising potential and sperm quality vs control animals [5]: fertility premium | C/PL-ratios vs control group [6]: lower | LH/hCG induced accumulation of FF-MAS [7]: completely blocks | extent of progesterone (steroid) production [7]: not influenced | tendency of decreasing tissue density of free cholesterol in the ovaries after hCG stimulation [7]: pronounced
